Laboratory results as given in the NIST ThermoML archive (doi:10.1016/j.fluid.2018.01.026).
Numbers after ± are expanded uncertainties.

Settings: 101.33 kPa, Liquid, Vibrating tube method

| mass density (293.15 K) | mass density (298.15 K) | mass density (303.15 K) | mass density (308.15 K) | mass density (313.15 K) | mass density (318.15 K) | mass density (323.15 K) | mass density (328.15 K) | mass density (333.15 K) | SMILES |
| --- | --- | --- | --- | --- | --- | --- | --- | --- | --- |
| 1080.13 ± 6.3 kg/m3 | 1074.92 ± 6.3 kg/m3 | 1069.67 ± 6.2 kg/m3 | 1064.31 ± 6.1 kg/m3 | 1058.71 ± 6.1 kg/m3 | 1053.13 ± 6 kg/m3 | 1047.55 ± 5.9 kg/m3 | 1042.01 ± 5.9 kg/m3 | 1036.62 ± 5.8 kg/m3 | CC(=O)CO [acetol] |
| 900.48 ± 1 kg/m3 | 894.36 ± 1 kg/m3 | 888.19 ± 1 kg/m3 | 881.98 ± 1 kg/m3 | 875.73 ± 1 kg/m3 | – | – | – | – | CCOC(C)=O [ethyl acetate] |
| 887.8 ± 1 kg/m3 | 882.19 ± 1 kg/m3 | 876.56 ± 1 kg/m3 | 870.9 ± 1 kg/m3 | 865.21 ± 1 kg/m3 | – | – | – | – | CCCOC(C)=O [propyl ethanoate] |

| SMILES | mass density (293.15 K) | mass density (298.15 K) | mass density (303.15 K) | mass density (308.15 K) | mass density (313.15 K) | mass density (318.15 K) | mass density (323.15 K) | mass density (328.15 K) | mass density (333.15 K) |
| --- | --- | --- | --- | --- | --- | --- | --- | --- | --- |
| CCCCOC(C)=O [butyl ethanoate] | 880.61 ± 1 kg/m3 | 875.45 ± 1 kg/m3 | 870.27 ± 1 kg/m3 | 865.08 ± 1 kg/m3 | 859.86 ± 1 kg/m3 | – | – | – | – |
